Reference: the NIST ThermoML archive (doi:10.1021/je049586l)
± gives the expanded uncertainty stated by the source. Blank lines part the entries; values can stand above or below the compound they belong to.

Assay: molar enthalpy of vaporization or sublimation
Details: Crystal, Static calorimetry

molar enthalpy (492 K): 46.5 ± 1.29 kcal/mol
Compound: O=C(O)c1ccc(C(=O)O)nc1 [2,5-pyridinedicarboxylic acid]

molar enthalpy (385 K): 31.1 ± 1.82 kcal/mol
Compound: COC(=O)c1cccc(C(=O)OC)n1 [2,6-pyridinedicarboxylic acid, dimethyl ester]

molar enthalpy (494 K): 40.2 ± 2.63 kcal/mol
Compound: O=C(O)c1cccc(C(=O)O)n1 [pyridine-2,6-dicarboxylic acid]
